The values below come from ChEMBL document CHEMBL1135265, “Squaric acid derivatives as VLA-4 integrin antagonists” (Bioorg Med Chem Lett, 2002).

The target of data set [1] is T1, Integrin alpha-4/beta-1 (Homo sapiens, UniProt P05556+P13612). In words: Inhibition of binding of Very late antigen 4/vascular cell adhesion molecule 1 in a cell based ligand binding assay (Jurkat cells).
Data set [2] addresses T1, Integrin alpha-4/beta-1. In words: Inhibition of binding of Very late antigen 4/vascular cell adhesion molecule 1 in a protein-based ligand binding assay. Type of data set: protein-complex assay.
Data set [3] is described as follows: Rate constant (k) of clearance from isolated perfused rat liver (IPRL). Type of data set: ADME.
For data set [4], the target named is T1, Integrin alpha-4/beta-1. Description: Inhibition of Jurkat cell VLA-4 adhesion to VCAM-1. Type of data set: cell-based.
The target in data set [5] is T1, Integrin alpha-4/beta-1. In words: Inhibition of very late antigen-4 (VLA-4)/vascular cell adhesion molecule-1(VCAM -1) interaction. Type of data set: protein-complex assay.

T1 sequence (P05556 whole entry): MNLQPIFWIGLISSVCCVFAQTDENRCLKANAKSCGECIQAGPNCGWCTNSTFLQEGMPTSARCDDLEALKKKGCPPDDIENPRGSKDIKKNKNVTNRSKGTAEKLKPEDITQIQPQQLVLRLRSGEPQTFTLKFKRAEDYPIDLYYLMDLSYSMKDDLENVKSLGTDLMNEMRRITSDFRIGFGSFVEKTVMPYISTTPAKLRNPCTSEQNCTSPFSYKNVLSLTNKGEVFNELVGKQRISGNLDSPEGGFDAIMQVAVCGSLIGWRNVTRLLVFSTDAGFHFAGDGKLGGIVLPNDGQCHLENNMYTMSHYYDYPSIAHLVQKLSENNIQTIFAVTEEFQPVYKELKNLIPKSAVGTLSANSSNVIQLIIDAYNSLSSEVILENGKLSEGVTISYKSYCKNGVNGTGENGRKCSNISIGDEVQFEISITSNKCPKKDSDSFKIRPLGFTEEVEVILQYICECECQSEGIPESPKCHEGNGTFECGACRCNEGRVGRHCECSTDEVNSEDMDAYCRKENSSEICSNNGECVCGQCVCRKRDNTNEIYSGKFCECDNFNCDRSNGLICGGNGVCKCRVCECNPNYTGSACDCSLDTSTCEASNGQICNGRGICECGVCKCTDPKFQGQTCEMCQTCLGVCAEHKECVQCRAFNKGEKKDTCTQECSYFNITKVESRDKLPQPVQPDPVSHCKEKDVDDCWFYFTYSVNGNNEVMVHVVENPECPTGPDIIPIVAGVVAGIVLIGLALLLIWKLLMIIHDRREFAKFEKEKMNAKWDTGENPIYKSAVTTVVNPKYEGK
T1 sequence (P13612 whole entry): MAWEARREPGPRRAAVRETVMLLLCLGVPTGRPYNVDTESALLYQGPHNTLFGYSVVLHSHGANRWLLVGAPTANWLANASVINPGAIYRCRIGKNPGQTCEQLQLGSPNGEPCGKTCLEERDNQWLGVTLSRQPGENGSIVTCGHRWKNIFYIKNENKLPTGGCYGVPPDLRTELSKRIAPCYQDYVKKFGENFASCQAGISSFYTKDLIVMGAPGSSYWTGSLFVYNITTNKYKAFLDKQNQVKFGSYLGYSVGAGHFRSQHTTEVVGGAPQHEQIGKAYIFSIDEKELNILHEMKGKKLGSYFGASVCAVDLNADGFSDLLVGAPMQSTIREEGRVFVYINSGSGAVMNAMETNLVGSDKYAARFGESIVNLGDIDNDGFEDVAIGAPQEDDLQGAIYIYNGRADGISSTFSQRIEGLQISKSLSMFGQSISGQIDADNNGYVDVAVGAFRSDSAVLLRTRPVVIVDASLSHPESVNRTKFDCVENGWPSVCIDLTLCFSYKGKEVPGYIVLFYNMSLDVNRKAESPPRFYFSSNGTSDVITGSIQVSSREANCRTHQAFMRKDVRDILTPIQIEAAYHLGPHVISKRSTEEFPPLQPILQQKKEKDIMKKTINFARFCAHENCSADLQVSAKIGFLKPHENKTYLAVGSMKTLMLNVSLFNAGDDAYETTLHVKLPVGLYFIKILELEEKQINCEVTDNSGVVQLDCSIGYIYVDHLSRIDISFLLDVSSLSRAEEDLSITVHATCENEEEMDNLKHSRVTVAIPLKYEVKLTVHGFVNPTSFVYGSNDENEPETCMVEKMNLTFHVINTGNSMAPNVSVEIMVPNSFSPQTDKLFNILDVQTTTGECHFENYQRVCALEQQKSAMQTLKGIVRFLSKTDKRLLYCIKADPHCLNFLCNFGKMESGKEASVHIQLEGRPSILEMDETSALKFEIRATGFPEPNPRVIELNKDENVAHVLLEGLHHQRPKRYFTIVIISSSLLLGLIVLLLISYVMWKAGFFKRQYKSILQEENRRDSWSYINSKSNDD

What is called IC50 is the point on the concentration scale where inhibition reaches its midpoint. A high value points to lower potency. `O=C(Nc1ccc(C[C@H](/N=c2\c(O)c(O)\c2=N/Cc2ccccc2)C(=O)O)cc1)c1c(Cl)cncc1Cl`: the IC50 in data set [1] is 320 nM; in data set [2], 3.7 nM. In data set [3], this molecule had a k el of 0.00117 s⁻¹.

In the case of `CCCCN(CCCC)c1c(N[C@@H](Cc2ccc(NC(=O)c3c(Cl)cncc3Cl)cc2)C(=O)O)c(=O)c1=O`, the figures for the half-inhibitory concentration (IC50) in data set [1] and in data set [2] were 5.7 nM and 2 nM, respectively. Further, in data set [3], the k el was 0.00183 s⁻¹.

Consider `C/N=c1\c(O)c(O)\c1=N/[C@@H](Cc1ccc(NC(=O)c2c(Cl)cncc2Cl)cc1)C(=O)O`, for which the IC50 was found to be 990 nM in data set [1] and 0.9 nM in data set [2]. Also, the k el in data set [3] was 0.00025 s⁻¹.

As for `CCC/N=c1\c(O)c(O)\c1=N/[C@@H](Cc1ccc(NC(=O)c2c(Cl)cncc2Cl)cc1)C(=O)O`, the IC50 was determined as 120 nM in data set [1] and 1.5 nM in data set [2]. The molecule further showed a k el in data set [3] of 2.78e-05 s⁻¹.

`CCN(CC)c1c(N[C@@H](Cc2ccc(OCc3c(Cl)cccc3Cl)cc2)C(=O)O)c(=O)c1=O`: the IC50 in data set [1] was determined as 12400 nM; in data set [2], 25 nM. This molecule showed a k el in data set [3] of 0.00108 s⁻¹.

On to `CN(C)c1c(N[C@@H](Cc2ccc(NC(=O)c3c(Cl)cncc3Cl)cc2)C(=O)O)c(=O)c1=O`, for which the IC50 is 590 nM in data set [1] and 0.5 nM in data set [2]. The molecule also had a k el in data set [3] of 0.00128 s⁻¹.

Turning to `CCN1CCN(c2c(N[C@@H](Cc3ccc(NC(=O)c4c(Cl)cncc4Cl)cc3)C(=O)O)c(=O)c2=O)CC1`, the IC50 in data set [1] stood at 60 nM; in data set [2], 0.5 nM. The same molecule showed a k el in data set [3] of 0.00103 s⁻¹.

Turning to `O=C(Nc1ccc(C[C@H](/N=c2/c(N3CCSCC3)c(O)c2=O)C(=O)O)cc1)c1c(Cl)cncc1Cl`, the IC50 in data set [1] was determined as 3.1 nM; in data set [2], 0.3 nM. Besides, the k el in data set [3] was 0.00158 s⁻¹.

In the case of `CC(C)(C)/N=c1\c(O)c(O)\c1=N/[C@@H](Cc1ccc(NC(=O)c2c(Cl)cncc2Cl)cc1)C(=O)O`, the IC50 turned out to be 690 nM in data set [1] and 3.5 nM in data set [2]. In data set [3], this molecule showed a k el of 0.000972 s⁻¹.

Regarding `CCC/N=c1\c(O)c(O)\c1=N/[C@@H](Cc1ccc(-c2c(OC)cccc2OC)cc1)C(=O)O`, the IC50 in data set [1] is 710 nM; in data set [2], 2.1 nM. In data set [3], this molecule gave a k el of 0.000194 s⁻¹.

Turning to `O=C(Nc1ccc(C[C@H](/N=c2\c(O)c(O)\c2=N/CCC(F)(F)F)C(=O)O)cc1)c1c(Cl)cncc1Cl`, the half-inhibitory concentration (IC50) in data set [1] was determined as 90 nM. Moreover, the k el in data set [3] is 0.000389 s⁻¹.

For the molecule `CCCCC/N=c1\c(O)c(O)\c1=N/[C@@H](Cc1ccc(NC(=O)c2c(Cl)cncc2Cl)cc1)C(=O)O`, the 50% inhibitory concentration (IC50) in data set [1] turned out to be 225 nM; in data set [2], 1 nM. Moreover, the k el in data set [3] was 0.00025 s⁻¹.

Turning to `CCC/N=c1\c(O)c(O)\c1=N/[C@@H](Cc1ccc(OCc2c(Cl)cccc2Cl)cc1)C(=O)O`, the IC50 in data set [4] came out at 18300 nM; in data set [5], 67 nM.

Take `CC(C)/N=c1\c(O)c(O)\c1=N/[C@@H](Cc1ccc(NC(=O)c2c(Cl)cncc2Cl)cc1)C(=O)O`: the IC50 was determined as 95 nM in data set [1] and 1 nM in data set [2]. This molecule showed a k el in data set [3] of 0.000722 s⁻¹.

On to `O=C(Nc1ccc(C[C@H](/N=c2\c(O)c(O)\c2=N/c2ccccc2)C(=O)O)cc1)c1c(Cl)cncc1Cl`, for which the figures for the IC50 in data set [1] and in data set [2] were 845 nM and 50 nM, respectively. In data set [3], this molecule had a k el of 0.000306 s⁻¹.

`CC(C)C/N=c1\c(O)c(O)\c1=N/[C@@H](Cc1ccc(NC(=O)c2c(Cl)cncc2Cl)cc1)C(=O)O`: the IC50 stood at 85 nM in data set [1] and 0.5 nM in data set [2]. Moreover, the k el in data set [3] is 0.000361 s⁻¹.

`CCC/N=c1\c(O)c(O)\c1=N/[C@@H](Cc1ccc(-c2ccccc2OC)cc1)C(=O)O`: the IC50 in data set [1] is 10800 nM; in data set [2], 6.7 nM.

Take `O=C(Nc1ccc(C[C@H](/N=c2\c(O)c(O)\c2=N/C2CCCC2)C(=O)O)cc1)c1c(Cl)cncc1Cl`: the IC50 in data set [1] was 290 nM; in data set [2], 9 nM. Further, the k el in data set [3] was 0.000139 s⁻¹.

In the case of `CCC/N=c1\c(O)c(O)\c1=N/[C@@H](Cc1ccc(Oc2ncccn2)cc1)C(=O)O`, the 50% inhibitory concentration (IC50) was determined as 8200 nM in data set [1] and 6.9 nM in data set [2]. Also, in data set [3], the k el is 0.000167 s⁻¹.

As for `COCC/N=c1\c(O)c(O)\c1=N/[C@@H](Cc1ccc(NC(=O)c2c(Cl)cncc2Cl)cc1)C(=O)O`, the values for the IC50 in data set [1] and in data set [2] were 75 nM and 1.2 nM, respectively. For the same molecule, the k el in data set [3] was 0.0005 s⁻¹.

For the molecule `O=C(Nc1ccc(C[C@H](/N=c2\c(O)c(O)\c2=N/C2CC2)C(=O)O)cc1)c1c(Cl)cncc1Cl`, the results for the IC50 in data set [1] and in data set [2] were 250 nM and 1.5 nM, respectively. In data set [3], this molecule showed a k el of 0.000444 s⁻¹.

For the molecule `CCCC/N=c1\c(O)c(O)\c1=N/[C@@H](Cc1ccc(NC(=O)c2c(Cl)cncc2Cl)cc1)C(=O)O`, the IC50 in data set [1] was 130 nM; in data set [2], 0.4 nM. This molecule gave a k el in data set [3] of 0.000361 s⁻¹.

As to `O=C(Nc1ccc(C[C@H](/N=c2\c(O)c(O)\c2=N/CCCC(F)(F)F)C(=O)O)cc1)c1c(Cl)cncc1Cl`, the IC50 in data set [1] came to 370 nM; in data set [2], 1 nM. The same molecule had a k el in data set [3] of 0.000306 s⁻¹.

Consider `CCC(C)/N=c1\c(O)c(O)\c1=N/[C@@H](Cc1ccc(NC(=O)c2c(Cl)cncc2Cl)cc1)C(=O)O` (stereo partly drawn), for which the figures for the IC50 in data set [1] and in data set [2] were 160 nM and 0.5 nM, respectively. The k el in data set [3] is 0.000861 s⁻¹.

Consider `CCN(CC)c1c(N[C@@H](Cc2ccc(-c3c(OC)cccc3OC)cc2)C(=O)O)c(=O)c1=O`, for which the IC50 was determined as 180 nM in data set [1] and 0.6 nM in data set [2]. In data set [3], this molecule gave a k el of 0.00108 s⁻¹.

For the molecule `CCN(CC)c1c(N[C@@H](Cc2ccc(NC(=O)c3c(Cl)cncc3Cl)cc2)C(=O)O)c(=O)c1=O`, the IC50 turned out to be 3.5 nM in data set [1] and 0.4 nM in data set [2]. The k el in data set [3] was 0.00161 s⁻¹.

For `CC/N=c1\c(O)c(O)\c1=N/[C@@H](Cc1ccc(NC(=O)c2c(Cl)cncc2Cl)cc1)C(=O)O`, the IC50 in data set [1] was 425 nM; in data set [2] it was 0.6 nM. This molecule also showed a k el in data set [3] of 0.000556 s⁻¹.

As to `CCN(CC)c1c(N[C@@H](Cc2ccc(-c3ccccc3OC)cc2)C(=O)O)c(=O)c1=O`, the IC50 was 1160 nM in data set [1] and 1.2 nM in data set [2]. For the same molecule, in data set [3], the k el is 0.000611 s⁻¹.

Take `O=C(Nc1ccc(C[C@H](/N=c2/c(N3CCCCC3)c(O)c2=O)C(=O)O)cc1)c1c(Cl)cncc1Cl`: the results for the IC50 in data set [1] and in data set [2] were 8.4 nM and 0.4 nM, respectively. The same molecule gave a k el in data set [3] of 0.00131 s⁻¹.

For `CCCC(C)/N=c1\c(O)c(O)\c1=N/[C@@H](Cc1ccc(NC(=O)c2c(Cl)cncc2Cl)cc1)C(=O)O` (stereo partly drawn), the IC50 in data set [1] turned out to be 50 nM; in data set [2], 0.6 nM. The same molecule showed a k el in data set [3] of 0.000667 s⁻¹.

On to `CCN(C)c1c(N[C@@H](Cc2ccc(NC(=O)c3c(Cl)cncc3Cl)cc2)C(=O)O)c(=O)c1=O`, for which the IC50 in data set [1] turned out to be 100 nM; in data set [2] it was 0.2 nM. For the same molecule, the k el in data set [3] was 0.00136 s⁻¹.

In the case of `O=C(Nc1ccc(C[C@H](/N=c2\c(O)c(O)\c2=N/C2CCC2)C(=O)O)cc1)c1c(Cl)cncc1Cl`, the values for the IC50 in data set [1] and in data set [2] were 155 nM and 2.6 nM, respectively. Further, the k el in data set [3] is 0.000139 s⁻¹.

Turning to `O=C(Nc1ccc(C[C@H](/N=c2/c(N3CCOCC3)c(O)c2=O)C(=O)O)cc1)c1c(Cl)cncc1Cl`, the figures for the IC50 in data set [1] and in data set [2] were 11 nM and 0.5 nM, respectively. The molecule also gave a k el in data set [3] of 0.00139 s⁻¹.

`CCCN(C)c1c(N[C@@H](Cc2ccc(NC(=O)c3c(Cl)cncc3Cl)cc2)C(=O)O)c(=O)c1=O`: the IC50 in data set [1] was 13 nM; in data set [2] it was 0.2 nM. Besides, the k el in data set [3] is 0.00125 s⁻¹.

Turning to `O=C(Nc1ccc(C[C@H](/N=c2/c(N3CCNCC3)c(O)c2=O)C(=O)O)cc1)c1c(Cl)cncc1Cl`, the IC50 in data set [1] was 40 nM; in data set [2], 0.4 nM. The k el in data set [3] is 0.00125 s⁻¹.

As for `CCN(CC)c1c(N[C@@H](Cc2ccc(Oc3ncccn3)cc2)C(=O)O)c(=O)c1=O`, the half-maximal inhibitory concentration (IC50) was 2300 nM in data set [1] and 1.5 nM in data set [2]. Moreover, the k el in data set [3] is 0.00075 s⁻¹.

As to `C=CC/N=c1\c(O)c(O)\c1=N/[C@@H](Cc1ccc(NC(=O)c2c(Cl)cncc2Cl)cc1)C(=O)O`, the IC50 in data set [1] was 120 nM; in data set [2], 1 nM. The k el in data set [3] was 0.000111 s⁻¹.
